Data taken from US20160053277A1, “Compositions Having Dicamba Decarboxylase Activity and Methods of Use” (PIONEER HI-BRED INTERNATIONAL, INC., priority 2013, published 2016).
“Also recorded” adds a separate entry of the source.

Key:
[1] = tested on: Soybean seeds; test: Soybean germination test on media with dicamba or decarboxylation product; format: in vivo; settings: FIG. 2, concentration not stated
[2] = tested on: Arabidopsis ecotype Columbia (Col-0); test: Arabidopsis root growth inhibition assay; settings: 6 days
Experimental: Phytotoxicity of other major dicamba decarboxylated products was evaluated using Arabidopsis root growth inhibition assay. 4-chloro-3-methoxy phenol was purchased from Biogene Organics, Inc. (catalog number U06-642-79). 2,5-dichloro phenol was purchased from Sigma-Aldrich (catalog number D70007). Briefly, seeds of Arabidopsis ecotype Columbia (Col-0) were surface sterilized with 70% (v/v) ethanol for 5 minutes and 10% (v/v) bleach for 15 minutes. After being washed three times with distilled water, the seeds were germinated on 1× Murashige and Skoog (MS) medium with a pH of 5.7, 3% (w/v) sucrose, and 0.8% (w/v) agar. After incubation for 3.5 days, the seedlings were transferred to 1× MS medium containing B5 vitamin, 3% (w/v) sucrose, 1.2% (w/v) agar, and filter sterilized compounds was added to the media at 60° C. The concentrations of compounds including dicamba were 0 μM, 1.0 μM, and 10 μM. The seedlings were placed vertically, and the temperature maintained at 23° C. to allow root growth along the surface of the agar, with a photoperiod of 16 h of light and 8 h of dark.
After 6 days on media, root growth was evaluated. In wild type Arabidopsis, root growth inhibition is expected from auxin herbicide treatment.

Compound: COc1cc(Cl)ccc1Cl [2,5-DCA, 2,5-dichloro anisole]
- soybean germination [1]: not affected

Compound: Oc1cc(Cl)ccc1Cl [2,5-dichloro phenol]
- Arabidopsis root growth ([2]; 1 uM in medium): not affected; also recorded: did not have any effect
- Arabidopsis root growth ([2]; 10 uM in medium): not affected; also recorded: did not have any effect
